The subject of experiment [1] is Nucleic Acid. The experiment can be described thus: Binding affinity to poly(dA).poly(dT) duplex DNA assessed as ratio of KA to KB by ESI-MS analysis. It is filed as nucleic-acid assay.
Experiment [2] concerns the target Kappa-type opioid receptor (Rattus norvegicus, UniProt P34975). The experiment can be described thus: Binding affinity to kappa opioid receptor in rat brain membrane. It is filed as cell membranes.
Experiment [3] has as its target Delta-type opioid receptor (Rattus norvegicus, UniProt P33533). The experiment can be described thus: Binding affinity to delta opioid receptor in rat brain membrane. It is filed as cell membranes.
Experiment [4] deals with Nucleic Acid. The experiment can be described thus: Binding affinity to poly(dA).poly(dT) DNA assessed as change in melting temperature. It counts as nucleic-acid assay.
Experiment [5] deals with Nucleic Acid. The experiment can be described thus: Binding affinity to poly(A).poly(U) RNA assessed as change in melting temperature. It is filed as nucleic-acid assay.

The term Ki denotes a dissociation constant, usually derived from enzyme kinetics or from competition with a known ligand. Higher therefore signals weaker binding. As a reminder, the ΔTm is the change in melting temperature against a reference sample.

Sequence of Kappa-type opioid receptor (P34975 whole entry): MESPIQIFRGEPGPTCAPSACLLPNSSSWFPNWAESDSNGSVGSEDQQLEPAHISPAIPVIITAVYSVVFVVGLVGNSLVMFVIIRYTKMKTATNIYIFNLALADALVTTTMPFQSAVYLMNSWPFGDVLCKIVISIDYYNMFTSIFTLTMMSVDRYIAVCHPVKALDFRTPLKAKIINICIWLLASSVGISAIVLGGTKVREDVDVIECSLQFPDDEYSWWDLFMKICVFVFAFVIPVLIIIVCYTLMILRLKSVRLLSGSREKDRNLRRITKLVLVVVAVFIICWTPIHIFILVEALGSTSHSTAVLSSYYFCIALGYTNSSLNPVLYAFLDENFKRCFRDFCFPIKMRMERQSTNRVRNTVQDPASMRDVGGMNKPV
Sequence of Delta-type opioid receptor (P33533 whole entry): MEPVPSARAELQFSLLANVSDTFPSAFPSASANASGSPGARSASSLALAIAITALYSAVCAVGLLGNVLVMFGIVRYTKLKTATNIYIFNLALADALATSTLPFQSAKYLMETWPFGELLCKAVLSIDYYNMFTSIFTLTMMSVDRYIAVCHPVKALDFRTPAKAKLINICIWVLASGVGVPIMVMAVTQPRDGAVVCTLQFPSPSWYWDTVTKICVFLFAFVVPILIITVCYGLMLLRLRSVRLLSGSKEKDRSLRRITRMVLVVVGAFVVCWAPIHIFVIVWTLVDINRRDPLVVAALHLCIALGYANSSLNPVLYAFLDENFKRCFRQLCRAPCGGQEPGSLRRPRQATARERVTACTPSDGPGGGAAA

Turning to `CCOc1ccc(-c2nc3cc(-c4nc5cc(N6CCN(C)CC6)ccc5[nH]4)ccc3[nH]2)cc1`, the Ratio in the experiment with Nucleic Acid [1] was found to be 3.7. Consider `Cn1cc(NC(=O)c2cc(NC(=O)CNC(=N)N)cn2C)cc1C(=O)NCCC(=N)N`, for which the Ratio in the experiment with Nucleic Acid [1] turned out to be 0.28. On the same count and under the same terms, the figure for `N=C(N)c1ccc(/N=N/Nc2ccc(C(=N)N)cc2)cc1` is 0.32; for `CN1CCN(c2ccc3[nH]c(-c4ccc5[nH]c(-c6ccc(O)cc6)nc5c4)nc3c2)CC1` it is 2.4. Take `CN1CC[C@]23c4c5ccc(O)c4O[C@H]2c2[nH]c4ccccc4c2C[C@@]3(O)[C@H]1C5` [OXYMORPHINDOLE]: the inhibition constant Ki turned out to be 2170 nM in experiment [2] and 0.8 nM in experiment [3]. Take `COc1cccc2c1C(=O)c1c(O)c3c(c(O)c1C2=O)C[C@@](O)(C(=O)CO)C[C@@H]3O[C@H]1C[C@H](N)[C@H](O)[C@H](C)O1`: in the experiment with Nucleic Acid [4], the thermal shift (ΔTm) amounted to 13 °C.

For `CC[n+]1c(-c2ccccc2)c2cc(N)ccc2c2ccc(N)cc21`, the thermal shift (ΔTm) in the experiment with Nucleic Acid [5] was 17 °C.

As to `Oc1ccc2c3c1O[C@H]1c4[nH]c5ccccc5c4C[C@@]4(O)[C@@H](C2)N(CC2CC2)CC[C@]314` [NALTRINDOLE], the Ki in experiment [2] came to 30 nM. For `Cn1cc(NC(=O)c2cc(NC(=O)c3cc(NC=O)cn3C)cn2C)cc1C(=O)NCCC(=N)N`, the Ratio in the experiment with Nucleic Acid [1] was 4.4. For the compound `O=C1c2c(O)ccc(O)c2C(=O)c2c(NCCNCCO)ccc(NCCNCCO)c21`, the ΔTm in the experiment on Nucleic Acid [4] stood at 23 °C. Still for that read-out and setting: to `COc1cc2cc3c4cc(OC)c(OC)cc4cc[n+]3c(C)c2cc1OC` belongs 18 °C.
